Laboratory results reported in ChEMBL document CHEMBL1201862, “PubChem BioAssay data set” (2004).
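Interpolation was linear, between the two tested concentrations surrounding the appropriate level; five concentrations were tested over 48 hours in 96-well plates. GI50 marks 50% less growth.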 Calls of active or inactive are those of the source. Cut-off read from the data, not from the text of the source: active = GI50 up to about 1.1 µM and inactive = higher.

Key:
Assay in all cases: NCI-60 cell line screen, 48 h
IGROV-1 = system: IGROV-1
SF-539 = system: SF-539
HOP-92 = system: HOP-92
DU-145 = system: DU-145
OVCAR-4 = system: OVCAR-4
MDA-MB-435 = system: MDA-MB-435
OVCAR-8 = system: OVCAR-8
SR = system: SR
CAKI-1 = system: CAKI-1
RPMI-8226 = system: RPMI-8226
ACHN = system: ACHN
SK-MEL-28 = system: SK-MEL-28
SK-OV-3 = system: SK-OV-3
RXF 393 = system: RXF 393
786-0 = system: 786-0
SNB-19 = system: SNB-19
OVCAR-5 = system: OVCAR-5
T47D = system: T47D
KM12 = system: KM12
Hs-578T = system: Hs-578T

| SMILES | GI50 (IGROV-1) | GI50 (SF-539) | GI50 (HOP-92) | GI50 (DU-145) | GI50 (OVCAR-4) | GI50 (MDA-MB-435) | GI50 (OVCAR-8) | GI50 (SR) | GI50 (CAKI-1) | GI50 (RPMI-8226) | GI50 (ACHN) | GI50 (SK-MEL-28) | GI50 (SK-OV-3) | GI50 (RXF 393) | GI50 (786-0) | GI50 (SNB-19) | GI50 (OVCAR-5) | GI50 (T47D) | GI50 (KM12) | GI50 (Hs-578T) |
| --- | --- | --- | --- | --- | --- | --- | --- | --- | --- | --- | --- | --- | --- | --- | --- | --- | --- | --- | --- | --- |
| COC(=O)C1(c2cc3ccccc3n2S(=O)(=O)c2ccccc2)CC2C=CC1NC2 (stereo not given) | 1.34 µM (inactive) | 1.95 µM (inactive) | 1.52 µM (inactive) | 2.4 µM (inactive) | 1.98 µM (inactive) | 1.63 µM (inactive) | 1.95 µM (inactive) | 0.216 µM (active) | 1.82 µM (inactive) | 0.933 µM (active) | 1.84 µM (inactive) | 2.67 µM (inactive) | 3.41 µM (inactive) | 1.76 µM (inactive) | 1.94 µM (inactive) | 2.2 µM (inactive) | 2.25 µM (inactive) | 3.24 µM (inactive) | 2.47 µM (inactive) |  |
| CCc1cc2c(Nc3ccccc3)c3c(nc2s1)CCCC3 | > 100 µM (inactive) | 43 µM (inactive) | 16.7 µM (inactive) |  | 24 µM (inactive) |  | > 100 µM (inactive) | 5.3 µM (inactive) |  | 3.71 µM (inactive) | 94.2 µM (inactive) | > 100 µM (inactive) | > 100 µM (inactive) | 22.4 µM (inactive) | 29.2 µM (inactive) | > 100 µM (inactive) | > 100 µM (inactive) |  | > 100 µM (inactive) |  |
| COc1cc(C2[C@H]3C(=O)N(c4ccc(Cc5ccc(N6C(=O)[C@@H]7ON(c8ccccc8)C(c8cc(OC)c(OC)c(OC)c8)[C@@H]7C6=O)cc5)cc4)C(=O)[C@H]3ON2c2ccccc2)cc(OC)c1OC (stereo not given in full) | > 100 µM (inactive) | > 100 µM (inactive) |  |  | > 100 µM (inactive) |  | > 100 µM (inactive) | > 100 µM (inactive) | > 100 µM (inactive) | > 100 µM (inactive) | > 100 µM (inactive) | > 100 µM (inactive) | > 100 µM (inactive) | > 100 µM (inactive) | > 100 µM (inactive) | > 100 µM (inactive) | > 100 µM (inactive) |  | > 100 µM (inactive) |  |
| CCc1cc2c(oc3c4ccccc4ccc23)c(=O)[nH]1 | > 10 µM (inactive) | > 10 µM (inactive) | > 10 µM (inactive) | > 10 µM (inactive) | > 10 µM (inactive) | > 10 µM (inactive) | > 10 µM (inactive) | > 10 µM (inactive) |  |  | > 10 µM (inactive) |  | > 10 µM (inactive) | > 10 µM (inactive) | > 10 µM (inactive) | > 10 µM (inactive) | > 10 µM (inactive) |  | > 10 µM (inactive) | > 10 µM (inactive) |
| O=S(=O)(NCn1ccc2ccccc21)c1ccccc1 | > 100 µM (inactive) | > 100 µM (inactive) | > 100 µM (inactive) |  |  |  | > 76.2 µM (inactive) | 31.6 µM (inactive) |  | 21.5 µM (inactive) | 97.5 µM (inactive) | > 77.8 µM (inactive) | > 100 µM (inactive) | > 63.8 µM (inactive) | > 100 µM (inactive) | > 31.6 µM (inactive) | > 100 µM (inactive) |  | > 60.7 µM (inactive) |  |
| COc1cc2c(c(OC)c1OC)C(=O)CC2N (stereo not given) | > 100 µM (inactive) | > 100 µM (inactive) | > 100 µM (inactive) |  | > 100 µM (inactive) | > 100 µM (inactive) | > 100 µM (inactive) |  | > 100 µM (inactive) | > 100 µM (inactive) | > 100 µM (inactive) | > 100 µM (inactive) | > 100 µM (inactive) |  | > 100 µM (inactive) | > 100 µM (inactive) | > 100 µM (inactive) |  | > 100 µM (inactive) | > 100 µM (inactive) |
| COC(=O)C(=O)C(C(=O)C(=O)Nc1ccccc1C(N)=O)c1nc2ccc([N+](=O)[O-])cc2nc1O (stereo not given) | > 100 µM (inactive) | > 100 µM (inactive) | > 100 µM (inactive) |  | > 100 µM (inactive) |  | > 100 µM (inactive) | > 100 µM (inactive) | > 100 µM (inactive) | > 100 µM (inactive) | > 100 µM (inactive) | > 100 µM (inactive) | > 100 µM (inactive) | > 100 µM (inactive) | > 100 µM (inactive) | > 100 µM (inactive) | > 100 µM (inactive) |  | > 100 µM (inactive) |  |
| Cc1c(O)c(OC2OC(CO)C(O)C(O)C2O)cc2c1C=C[C@@H]1[C@@]2(C)C(=O)C[C@]2(C)[C@@H]([C@@](C)(O)C(=O)CCC(C)(C)O)[C@H](O)C[C@@]12C (stereo not given in full) | 19.7 µM (inactive) | 18.1 µM (inactive) | 18.4 µM (inactive) | 23.7 µM (inactive) | 25.4 µM (inactive) | 27.1 µM (inactive) | 33.3 µM (inactive) | 35.9 µM (inactive) | 20 µM (inactive) |  | 19.6 µM (inactive) | 21.1 µM (inactive) | 15.7 µM (inactive) | 18.6 µM (inactive) | 25.2 µM (inactive) | 23.2 µM (inactive) | 25.6 µM (inactive) | 18.7 µM (inactive) | 25.4 µM (inactive) |  |
| CN1CNc2nc(N)n(C)c(=O)c2C1 | > 10 µM (inactive) | > 10 µM (inactive) | > 10 µM (inactive) | > 10 µM (inactive) | > 10 µM (inactive) | > 10 µM (inactive) | > 10 µM (inactive) | > 10 µM (inactive) |  |  | > 10 µM (inactive) |  | > 10 µM (inactive) | > 10 µM (inactive) | > 10 µM (inactive) | > 10 µM (inactive) | > 10 µM (inactive) |  | > 10 µM (inactive) |  |
| COC(=O)CCC(=O)CC1CC(=O)C2CCCN12 (stereo not given) | > 100 µM (inactive) | > 100 µM (inactive) | > 100 µM (inactive) |  | > 100 µM (inactive) |  | > 100 µM (inactive) | > 100 µM (inactive) | > 100 µM (inactive) | > 100 µM (inactive) | > 100 µM (inactive) | > 100 µM (inactive) | > 100 µM (inactive) | > 100 µM (inactive) | > 100 µM (inactive) | > 100 µM (inactive) | > 100 µM (inactive) |  | > 100 µM (inactive) |  |
| Cc1cn(C2CC(SCCO)C(CO)O2)c(=O)[nH]c1=O (stereo not given) | > 100 µM (inactive) | > 100 µM (inactive) | > 100 µM (inactive) | > 100 µM (inactive) | > 100 µM (inactive) | > 100 µM (inactive) | > 100 µM (inactive) | > 100 µM (inactive) | > 100 µM (inactive) | > 100 µM (inactive) | > 100 µM (inactive) | > 100 µM (inactive) | > 100 µM (inactive) | > 100 µM (inactive) | > 100 µM (inactive) | > 100 µM (inactive) | > 100 µM (inactive) | > 100 µM (inactive) | > 100 µM (inactive) |  |
| Cc1c2ccncc2c(C)c2c1[nH]c1ccc(OC(C)C)cc12 | 1.43 µM (inactive) | 1.82 µM (inactive) | 1.51 µM (inactive) |  | 1.71 µM (inactive) |  | 1.04 µM (active) | 0.668 µM (active) | 1.6 µM (inactive) | 1.99 µM (inactive) | 1.29 µM (inactive) | 1.66 µM (inactive) | 1.42 µM (inactive) | 1.33 µM (inactive) | 1.19 µM (inactive) | 1.59 µM (inactive) | 1.48 µM (inactive) |  | 1.35 µM (inactive) |  |
